Tested on: C. auris
Test: Screening of antifungal activity at 256 µg/mL against C. auris
Format: cell-based, Candida auris
Details: screening at 256 µg/mL, clinical isolates of C. auris
Text: The fungal strains used in this study were C. albicans ATCC 10231, C. albicans ATCC 64550, C. parapsilosis ATCC 22019, C. tropicalis ATCC 750, C. tropicalis ATCC 200956 (resistant to azoles and AMB), C. glabrata LMDM 34 (resistant to echinocandins), C. metapsilosis MUM 15.12, C. orthopsilosis MUM 17.13, C. lusitaniae MUM 17.08, C. krusei ATCC 6258 (Issatchenkia orientalis ATCC 6258), and C. auris CDC B11903. Additionally, nine clinical isolates were included: C. parapsilosis Synlab 406 (FLC-resistant) and eight C. auris isolates identified by MALDI-TOF MS (Bruker Daltonics, Bremen, Germany) according to Zhao et al.. These yeasts were cultured on Sabouraud Dextrose Agar (SDA; Sigma-Aldrich, St. Louis, MO, USA) for 24 h at 35 °C.
Antifungal susceptibility testing was performed according to Clinical and Laboratory Standards Institute M27, 4th Edition (CLSI standard M27, 4th Edition). Some modifications were applied for evaluation of the antifungal activity of EOs and terpenes. Initially, a screening was carried out to determine the antifungal activity of the EOs and of commercial terpenes. Stock concentrations of EOs and terpenes were prepared at 512 µg/mL and an inoculum of 2.5 × 10^3 CFU/mL of each yeast was prepared in RPMI 1640-MOPS (Sigma- Aldrich St. Louis, MO, USA). Thereafter, 100 µL of each stock solution of EOs or terpenes was dispensed in 96-well microdilution plates (Corning®, Costar®, NY, USA) and 100 µL of each yeast inoculum was added. […] MICs were visually determined at the lowest concentration that produced visual inhibition compared to the growth control. […] The results were expressed as geometric means (GM) and ranges. As an antifungal susceptibility testing control, the activity of ITC and AMB against the reference strains C. krusei ATCC 6258 and C. parapsilosis ATCC 22019 was evaluated in all experiments following the CLSI standard M27, 4th Edition. […]

SMILES	antifungal activity in screening against C. auris
CC1=CC(=O)[C@@H]2C[C@H]1C2(C)C [verbenone]	active against only some of the clinical isolates of C. auris
C=C(C)C1CC=C(C)C(O)C1 (mixture of isomers) [carveol]	active against only some of the clinical isolates of C. auris
